This note sets out measurements from patent US10981906B2, “Substituted pyrrolopyridine JAK inhibitors and methods of making and using the same” (ACLARIS THERAPEUTICS, INC., priority 2017, dated 2021).

What is called IC50 is the point on the concentration scale where inhibition reaches its midpoint.

The structures appear in SMILES notation. Read-outs that look alike come from different tables or passages of the source.

One experiment concerns the target JAK3 (a.a. 781-1124) (Homo sapiens (Human), UniProt P52333). Kind of experiment: JAK3 enzyme activity assay (SRCtide phosphorylation, Caliper). It is filed as biochemical. The note with it: 2.5 nM JAK3, 1 μM SRCtide, 1 uM ATP, 40 minutes; read-out: JAK3 Inhibition IC50. Here is the method: The activity of JAK3 (a.a. 781-1124, ThermoFisher) was quantified by measuring the phosphorylation of SRCtide (FAM-GEEPLYWSFPAKKK-NH2). Kinase reactions were run in a 384-well Greiner plate with 2% final DMSO concentration under the buffer conditions of 20 mM HEPES, pH 7.5, 10 mM MgCl2, 0.01% BSA, and 0.0005% Tween-20. The kinase reaction components were 2.5 nM JAK3, 1 μM SRCtide peptide and 1 uM ATP. Examples were tested in dose-response starting at 2 μM (11 concentrations, 3-fold serial dilution, duplicate reactions). The reactions were incubated at room temperature for 40 minutes, then stopped by adding a 1:1 volume of 30 mM EDTA in 20 mM HEPES, pH 7.5 (15 mM EDTA final). After the reaction was stopped, the phosphorylated and unphosphorylated peptides were separated and quantified using a Caliper LC3000/EZ-Reader system and HTS Well Analyzer Software (Caliper, A PerkinElmer Company, Hopkinton, Mass.). GraFit (Erithacus Software Ltd., Horley, U.K.) was used to calculate inhibitor potency by fitting dose-response data to the 4-parameter logistical IC50 equation.
(§1) Background signal is defined in the absence of enzyme and uninhibited signal is defined in the presence of vehicle (2% DMSO) alone. Compounds were evaluated in an 11 point dose-response ranging from […] to 0.34 nM. IC50 values of compounds are determined using a 4 parameter logistical fit of emission ratio as a function of the concentration of compound.

Another experiment concerns the target JAK1 (Homo sapiens (Human), UniProt P23458). In words: JAK1 enzyme activity assay (Thermo Fisher SelectScreen Z-lyte). The class given is biochemical. The note with it: 1 hour kinase reaction, read-out: JAK1 Inhibition IC50. On the procedure: The inhibitory potency of candidate compounds of JAK1 done at Thermo Fisher Scientific in their Selectscreen using a Z-lyte assay. The 2×JAK1/Tyr 06 mixture is prepared in 50 mM HEPES pH 6.5, 0.01% BRIJ-35, 10 mM MgCl2, 1 mM EGTA, 0.02% NaN3. The final 10 μL of the Kinase Reaction consists of 21.2-91.5 ng JAK1 and 2 μM Tyr 06 in 50 mM HEPES pH 7.0, 0.01% BRIJ-35, 10 mM MgCl2, 1 mM EGTA, 0.01% NaN3. After the 1 hour Kinase Reaction incubation, 5 μL of a 1:128 dilution of Development Reagent is added.
as §1

Experiment [1] deals with IL-2 stimulated STAT5 phosphorylation on Tyr694 (JAK1/3). In words: JAK1/3 cellular target modulation: IL-2 stimulated phospho-STAT5 in PBMC. The class given is cell-based. The conditions noted are these: IL-2 25 ng/ml, 1 hour compound preincubation, read-out: IL2-STAT5 Inhibition IC50. The source says: (§2) Target modulation was based upon the ability of a compound to inhibit JAK isoform specific phosphorylation of selected substrates. IL-2 stimulated STAT5 phosphorylation on Tyr694 was used to assess JAK1/3 compound selectivity. GM-CSF stimulated STAT5 phosphorylation on Tyr694 was used to assess JAK2 compound selectivity. IFNγ stimulated STAT1 phosphorylation on Tyr701 was used to assess JAK1/2 compound selectivity. For all three assays, human PBMC from frozen stocks were thawed, pelleted, resuspended in complete media (90% RPMI, 10% heat inactivated FBS, 10 mM HEPES, 47 μM 2-ME, pen/strep) and placed in wells of a 96 well V-bottom plate at 200,000 per well in 120 μl complete media. Compounds were added as 15 μl per well of 10× working stock solutions in complete media with 1% DMSO (or medium with 1% DMSO for controls) and placed on a plate shaker in a 37° C. incubator with 5% CO2 for 1 hour with gentle shaking (setting of 3). Stimulation used the addition of soluble cytokines. For the JAK1/3 phospho-STAT5 assay, 15 μl of 10× working stock recombinant human IL-2 was added to a final concentration of 25 ng/ml. For the JAK2 phospho-STAT5 assay, 15 μl of 10× working stock recombinant human GM-CSF was added to a final concentration of 5 ng/ml. For the JAK1/2 phospho-STAT1 assay, 15 μl of 10× working stock of recombinant human IFNγ was added to a final concentration of 10 ng/ml. Plates were then placed back on the plate shaker in the incubator for an additional 5, 5 and 10 minutes respectively upon which the plates were removed from the incubator, sealed with a plate sealer and the cells pelleted at 400×g for 5 minutes. After pelleting, the media was removed by aspiration and the cells were lysed in ELISA specific cell lysis buffer. The levels of phospho-STAT5 were determined using a Phospho (Tyr694)/Total STAT5a,b Whole Cell Lysate kit from Meso Scale Discovery. Levels of phospho-STAT1 were determined using a CST-PathScan Phospho-STAT1 (Tyr701) Sandwich ELISA kit.

Experiment [2] relates to IFNγ stimulated STAT1 phosphorylation on Tyr701 (JAK1/2). Kind of experiment: JAK1/2 cellular target modulation: IFNγ stimulated phospho-STAT1 in PBMC. The class given is cell-based. The note with it: IFNγ 10 ng/ml, 1 hour compound preincubation, read-out: Infγ-STAT1 IC50.
Excerpt: as §2

Chain of JAK3 (a.a. 781-1124) (P52333 781-1124): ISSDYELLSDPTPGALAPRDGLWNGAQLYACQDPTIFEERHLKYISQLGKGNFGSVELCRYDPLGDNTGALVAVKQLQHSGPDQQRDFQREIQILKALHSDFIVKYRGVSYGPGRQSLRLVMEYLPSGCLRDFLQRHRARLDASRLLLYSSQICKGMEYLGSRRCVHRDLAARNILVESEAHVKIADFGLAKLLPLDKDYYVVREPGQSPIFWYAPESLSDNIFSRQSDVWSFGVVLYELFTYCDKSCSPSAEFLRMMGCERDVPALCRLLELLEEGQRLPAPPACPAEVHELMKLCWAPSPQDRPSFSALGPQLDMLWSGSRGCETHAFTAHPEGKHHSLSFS
Chain of JAK1 (P23458 whole entry): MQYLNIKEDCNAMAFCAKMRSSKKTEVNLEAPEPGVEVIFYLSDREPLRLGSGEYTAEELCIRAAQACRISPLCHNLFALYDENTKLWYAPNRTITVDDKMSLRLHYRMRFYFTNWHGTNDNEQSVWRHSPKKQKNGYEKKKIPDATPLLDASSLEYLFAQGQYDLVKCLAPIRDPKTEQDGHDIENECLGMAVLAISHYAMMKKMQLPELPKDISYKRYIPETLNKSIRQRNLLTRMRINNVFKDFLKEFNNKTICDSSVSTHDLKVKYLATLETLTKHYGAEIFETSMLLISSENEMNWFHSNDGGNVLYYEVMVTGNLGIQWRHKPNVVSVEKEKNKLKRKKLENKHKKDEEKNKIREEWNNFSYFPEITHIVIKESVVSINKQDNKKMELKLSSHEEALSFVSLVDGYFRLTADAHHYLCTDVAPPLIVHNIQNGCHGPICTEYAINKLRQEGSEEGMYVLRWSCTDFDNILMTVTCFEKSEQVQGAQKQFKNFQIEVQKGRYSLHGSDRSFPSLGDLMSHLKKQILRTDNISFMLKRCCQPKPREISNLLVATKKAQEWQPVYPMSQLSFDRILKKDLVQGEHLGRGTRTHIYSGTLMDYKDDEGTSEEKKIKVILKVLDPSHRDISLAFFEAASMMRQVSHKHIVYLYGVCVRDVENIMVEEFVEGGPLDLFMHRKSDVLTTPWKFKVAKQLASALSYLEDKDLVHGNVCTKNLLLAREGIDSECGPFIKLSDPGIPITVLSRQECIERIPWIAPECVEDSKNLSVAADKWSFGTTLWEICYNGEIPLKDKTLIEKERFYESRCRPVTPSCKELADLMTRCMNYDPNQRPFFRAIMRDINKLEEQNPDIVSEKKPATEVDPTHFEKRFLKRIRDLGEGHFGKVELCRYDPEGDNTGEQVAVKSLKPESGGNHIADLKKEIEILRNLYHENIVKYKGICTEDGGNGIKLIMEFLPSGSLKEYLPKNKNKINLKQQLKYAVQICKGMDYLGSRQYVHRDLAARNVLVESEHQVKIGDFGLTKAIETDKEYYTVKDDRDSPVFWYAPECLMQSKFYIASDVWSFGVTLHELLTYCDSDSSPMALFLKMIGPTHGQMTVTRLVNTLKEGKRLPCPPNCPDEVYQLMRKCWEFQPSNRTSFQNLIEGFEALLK

Turning to `CCOC(=O)c1cnc2[nH]ccc2c1N[C@H]1CC[C@H](OC(=O)CC#N)C1` (single isomer, unassigned) [Example 74, (trans)-ethyl 4-((3-(2-cyanoacetoxy)cyclopentyl)amino)-1H-pyrrolo[2,3-b]pyridine-5-carboxylate], the 50% inhibitory concentration (IC50) is 10 to 100 nM on JAK3 (a.a. 781-1124), 10 to 100 nM at JAK1, 100 to 1000 nM in experiment [1] (human PBMC) and above 1000 nM in experiment [2] (human PBMC).
`CCOC(=O)c1cnc2[nH]ccc2c1N[C@H]1CC[C@H](OC(=O)CC#N)C1` (single isomer, unassigned) [Example 73, (trans)-ethyl 4-((3-(2-cyanoacetoxy)cyclopentyl)amino)-1H-pyrrolo [2,3-b]pyridine-5-carboxylate]: the concentration for half-maximal inhibition (IC50) is 10 to 100 nM at JAK3 (a.a. 781-1124); at most 10 nM at JAK1; at most 100 nM in experiment [1] (Homo sapiens, PBMC); at most 100 nM in experiment [2] (human PBMC).
With `CCOC(=O)c1cnc2[nH]ccc2c1N[C@H]1CCC[C@H](CCC#N)C1` (single isomer, unassigned; enantiomer 2) [Example 138, (trans)-ethyl 4-((3-(2-cyanoethyl)cyclohexyl)amino)-1H-pyrrolo[2,3-b]pyridine-5-carboxylate, enantiomer 2], the IC50 at JAK3 (a.a. 781-1124) is at most 10 nM; at JAK1, 10 to 100 nM; in experiment [1] (Homo sapiens, PBMC) it was 100 to 1000 nM; in experiment [2] (Homo sapiens, PBMC) it was 100 to 1000 nM.
For the compound `CCOC(=O)c1cnc2[nH]ccc2c1N[C@@H]1CCCN(C(=O)C2(C#N)CC2)C1` [Example 128, ethyl (R)-4-((1-(1-cyanocyclopropane-1-carbonyl)piperidin-3-yl)amino)-1H-pyrrolo[2,3-b]pyridine-5-carboxylate], the IC50 was at most 10 nM on JAK3 (a.a. 781-1124); 10 to 100 nM at JAK1; at most 100 nM in experiment [1] (Homo sapiens, PBMC); above 1000 nM in experiment [2] (Homo sapiens, PBMC).
`CCOC(=O)c1cnc2[nH]ccc2c1N[C@H]1CN(C(=O)C2(C#N)CC2)CC[C@H]1C` [Example 126, ethyl 4-(((3R,4R)-1-(1-cyanocyclopropane-1-carbonyl)-4-methylpiperidin-3-yl)amino)-1H-pyrrolo[2,3-b]pyridine-5-carboxylate]: the concentration for half-maximal inhibition (IC50) on JAK3 (a.a. 781-1124) is 10 to 100 nM; on JAK1, 10 to 100 nM; in experiment [1] (Homo sapiens, PBMC), 100 to 1000 nM; in experiment [2] (Homo sapiens, PBMC), above 1000 nM.
Consider `CCCOC(=O)c1cnc2[nH]ccc2c1N[C@H]1CCC[C@H](CCC#N)C1` (racemic) [Example 140, (rac)-(trans)-propyl 4-((3-(2-cyanoethyl)cyclohexyl)amino)-1H-pyrrolo[2,3-b]pyridine-5-carboxylate], for which the IC50 was at most 10 nM on JAK3 (a.a. 781-1124); at most 10 nM at JAK1; 100 to 1000 nM in experiment [1] (Homo sapiens, PBMC); 100 to 1000 nM in experiment [2] (Homo sapiens, PBMC).
For `COCCOC(=O)c1cnc2[nH]ccc2c1N[C@H]1CCC[C@@H](CCC#N)C1` (single isomer, unassigned; enantiomer 1) [Example 149, cis-2-methoxyethyl 4-((3-(2-cyanoethyl)cyclohexyl)amino)-1H-pyrrolo[2,3-b]pyridine-5-carboxylate, enantiomer 1], the 50% inhibitory concentration (IC50) at JAK3 (a.a. 781-1124) was 10 to 100 nM; on JAK1 it was 100 to 1000 nM; in experiment [1] (Homo sapiens, PBMC), 100 to 1000 nM; in experiment [2] (Homo sapiens, PBMC) it was above 1000 nM.
Regarding `CCOC(=O)c1cnc2[nH]ccc2c1NC1CCC(CCC#N)C1` (single isomer, unassigned; stereoisomer 1) [Example 154, Ethyl 4-((3-(2-cyanoethyl)cyclopentyl)amino)-1H-pyrrolo[2,3-b]pyridine-5-carboxylate, single stereoisomer 1], the IC50 at JAK3 (a.a. 781-1124) was 10 to 100 nM; at JAK1, 100 to 1000 nM; in experiment [1] (Homo sapiens, PBMC) it was 100 to 1000 nM; in experiment [2] (Homo sapiens, PBMC), above 1000 nM.
Consider `COCCOC(=O)c1cnc2[nH]ccc2c1N[C@H]1CCC[C@H](CCC#N)C1` (racemic) [Example 148, racemic, trans-2-methoxyethyl 4-((3-(2-cyanoethyl)cyclohexyl)amino)-1H-pyrrolo[2,3-b]pyridine-5-carboxylate], for which the IC50 on JAK3 (a.a. 781-1124) was at most 10 nM; at JAK1, 10 to 100 nM; in experiment [1] (Homo sapiens, PBMC), 100 to 1000 nM; in experiment [2] (Homo sapiens, PBMC) it was 100 to 1000 nM.
On to `CCOC(=O)c1cnc2[nH]ccc2c1N[C@H]1CCC[C@@H](CCC#N)C1` (single isomer, unassigned; enantiomer 1) [Example 135, (cis) ethyl 4-((3-(2-cyanoethyl)cyclohexyl)amino)-1H-pyrrolo[2,3-b]pyridine-5-carboxylate, enantiomer 1], for which the half-maximal inhibitory concentration (IC50) was at most 10 nM on JAK3 (a.a. 781-1124); at most 10 nM at JAK1; at most 100 nM in experiment [1] (Homo sapiens, PBMC); at most 100 nM in experiment [2] (Homo sapiens, PBMC).
As for `CCOC(=O)c1cnc2[nH]ccc2c1NC1CCCC(CCC#N)C1` (stereo not drawn) [Example 132, ethyl 4-((3-(2-cyanoethyl)cyclohexyl)amino)-1H-pyrrolo[2,3-b]pyridine-5-carboxylate], the IC50 is at most 10 nM at JAK3 (a.a. 781-1124); at most 10 nM on JAK1; at most 100 nM in experiment [1] (Homo sapiens, PBMC); 100 to 1000 nM in experiment [2] (Homo sapiens, PBMC).
Regarding `CCOC(=O)c1cnc2[nH]ccc2c1N[C@H]1CCC[C@@H](CCC#N)C1` (racemic) [Example 133, (rac)-(cis)-ethyl 4-((3-(2-cyanoethyl)cyclohexyl)amino)-1H-pyrrolo[2,3-b]pyridine-5-carboxylate], the concentration for half-maximal inhibition (IC50) at JAK3 (a.a. 781-1124) is at most 10 nM; at JAK1, at most 10 nM; in experiment [1] (Homo sapiens, PBMC), at most 100 nM; in experiment [2] (Homo sapiens, PBMC), 100 to 1000 nM.
For the compound `CCOC(=O)c1cnc2[nH]ccc2c1N[C@H]1CCC[C@H](CCC#N)C1` (racemic) [Example 134, (rac)-(trans)-Ethyl 4-((3-(2-cyanoethyl)cyclohexyl)amino)-1H-pyrrolo[2,3-b]pyridine-5-carboxylate], the IC50 on JAK3 (a.a. 781-1124) was at most 10 nM; on JAK1, at most 10 nM; in experiment [1] (Homo sapiens, PBMC) it was at most 100 nM; in experiment [2] (Homo sapiens, PBMC) it was 100 to 1000 nM.
With `CCOC(=O)c1cnc2[nH]ccc2c1NC1CCC(CCC#N)C1` (mixture of isomers) [Example 153, Ethyl 4-((3-(2-cyanoethyl)cyclopentyl)amino)-1H-pyrrolo[2,3-b]pyridine-5-carboxylate as a mixture of 2 stereoisomers], the half-inhibitory concentration (IC50) on JAK3 (a.a. 781-1124) was at most 10 nM; at JAK1 it was at most 10 nM; in experiment [1] (Homo sapiens, PBMC) it was at most 100 nM; in experiment [2] (Homo sapiens, PBMC), 100 to 1000 nM.
As for `CCOC(=O)c1cnc2[nH]ccc2c1N[C@@H]1CC[C@@H](O)C1` (single isomer, unassigned) [Example 72, (trans)-ethyl 4-((3-hydroxycyclopentyl)amino)-1H-pyrrolo [2,3-b]pyridine-5-carboxylate], the concentration for half-maximal inhibition (IC50) on JAK3 (a.a. 781-1124) is 10 to 100 nM; at JAK1, 10 to 100 nM; in experiment [1] (Homo sapiens, PBMC) it was 100 to 1000 nM; in experiment [2] (Homo sapiens, PBMC), above 1000 nM.
